Measured values from publication PMC5812297, “Specificity and Application of the Lantibiotic Protease NisP” (Frontiers in Microbiology, 2018).
Entries after “also recorded” stand apart in the source; their conditions may differ. Ends that are not written are not given here.

Key:
NisP = experiment: Cleavage of nisin mutants by NisP in crude supernatants or purified peptide, masses by MALDI-TOF; format: biochemical, Lactococcus lactis; details: His-tagged purified NisP, overnight 37°C; for Aberrant cleavage / misprocessing by NisP: culture pH (4.5–5.0) or pH 6.0, MALDI-TOF
Protocol: Alternatively, supernatants containing nisin mutant peptides produced after induction were divided into two fractions; one in which the pH was adjusted to 6.0 and the other one where the pH was the actual fermentation pH. They were incubated overnight at 37°C with or without His-tagged purified NisP at a ratio of 1000:1. After the incubation, the supernatants were precipitated using TCA and resuspended in 1/20 volume 0.05% acetic acid. For the mutants that were produced in lower amounts, larger volumes were induced and the peptides were purified by cationic exchange chromatography as described before and separated by reverse phase chromatography using a Jupiter 4 μm Proteo 90 Å 250 × 4.6 mm C12 analytical column (Phenomenex). The column was equilibrated in 20% organic solvent (acetonitrile 0.1% TFA) before the sample injection. It was washed for 5 min before applying a linear gradient from 20 to 50% organic solvent in 20 min. 1 μl of each collected peak was used for mass-spectrometry determination.
Mass spectrometry analysis of the samples was performed by matrix-assisted laser desorption/ionization (MALDI) time-of-flight (ToF) in an ABI Voyager DE Pro (Applied Biosystems) operating in linear mode as previously described using external calibration (van Heel et al., [2013]). Briefly, 1 μl sample was spotted, dried and washed with 5 μL Milli-Q water, on the target. Next, 1 μl of α-cyano-4-hydroxycinnamic acid 5 mg/ml (Sigma-Aldrich) was spotted on the sample.
We designed a set of nisin mutants to investigate the specificity of NisP (Figure 4). For all these mutants, supernatants were collected after induction and divided into three fractions. NisP was added to two of these fractions, one maintaining the pH of the culture (4.5–5.0) and the other fraction was adjusted to pH 6.0. The third fraction was used as an untreated control. After cleavage, the masses of the peptides were monitored by MALDI-TOF (Table 2).

[1] = system: L. lactis NZ9000 (pNZnisP-8H); experiment: Antimicrobial activity of purified prelantibiotics against NisP producing sensor strain; format: cell-based, Lactococcus lactis; details: compared to the plasmid free strain, data not shown
Protocol: (§1) Activity tests were performed by well-diffusion assay as indicated by van Heel et al. ([2013]). L. lactis NZ9000 transformed with the appropriate plasmids or Micrococcus flavus were used as sensor strains as specified in each figure. The cleavage of nisin by NisP after SDS-PAGE was monitored washing the gel according to Bhunia et al. ([1987]) and covering with an overlay of GM17 soft agar inoculated with NZ9000 (pIL3BTC pNZnisA-E3) induced with 1 ng/ml nisin. The overlay was incubated for 16 h, after which the presence of inhibition zones was evaluated.
The substrate tolerance of soluble NisP was tested using a set of different lantibiotics. These were produced using the nisin modification machinery encoded in NZ9000 (pIL3BTC pNZE3-mutant) and purified by cationic exchange chromatography. For this purpose, NZ9000 (pNZ-nisP-8H) was used as a sensor strain and tested using gallidermin (van Heel et al., [2013]) and two lantibiotics detected in the genome of Streptococcus pneumoniae, PneA1 and PneA2 encoded in the genes spr1765 and spr1766, respectively, which were heterologously expressed in L. lactis fused to the nisin leader peptide (Majchrzykiewicz et al., [2010]) (Figure 5). […] The activity was restored when a strain producing soluble NisP was employed.
Figure 5 Antimicrobial activity of purified modified lantibiotics gallidermin, 1215 and 1268 against L. lactis NZ9000 (pNZnisP-8H). […]

[2] = system: L. lactis NZ9000 (pIL253 pNZ8048); experiment: Activity of the proteases in crude supernatants, antimicrobial assay against L. lactis; format: cell-based, Lactococcus lactis; details: 1 μl protease with 50 μl supernatant containing its corresponding prenisin variant
Protocol: as §1
To further compare the versatility of NisP in culture conditions with various proteases frequently used in biotechnology, we mutated the last four amino acids in the leader peptide (P4-P1) of nisin (i.e., ASPR) to insert a factor Xa (IEGR) or a thrombin (AVPR) cleavage site. We also mutated the arginine in position P1 of the leader peptide into glutamic acid, creating a cleavage site for the endoprotease Glu-C. Additionally, the proposed self-cleavage sequence of NisP (VSLR) (Figure 1, van der Meer et al., [1993]) was used to replace the ASPR sequence at the end of the nisin leader peptide. […] The cleavage was evaluated by activity against NZ9000 (pIL253 pNZ8048), which is resistant to the erythromycin and chloramphenicol present in the supernatants of the substrate producer strains but sensitive to nisin. […]

Micrococcus flavus = experiment: Activation of prenisin with supernatants containing NisP variants, antimicrobial assay; format: cell-based; details: supernatants after 3 h induction; in the first test 5 μl with 50 μl prenisin
Protocol: as §1
The supernatants of the strains NZ9000 (pNZnisPsl-8H) and NZ9000 (pNZnisPsl-8K) were tested for the presence of protease activity after 3 h of induction with nisin. In each case, 5 μl of the supernatant was mixed with 50 μl of prenisin obtained by TCA precipitation of induced NZ9000 (pIL3BTC pNZnisA-E3). […]
In a second approach, we attempted to reduce the size of NisP, while keeping the active subtilisin-like domain intact. […] Additionally, the size of the inhibition halo measured is larger in the samples activated with the soluble protease present in the supernatants of these three engineered strains compared to the samples activated with the supernatant of L. lactis NZ9000 (pNGnisTP), which produces as a major product wild-type cell-anchored NisP.

nisin I1D: Nisin I1D mutant (MSTKDFNLDLVSVSKKDSGASPRDTSISLCTPGCKTGALMGCNMKTATCHCSIHVSK; ends and bridges not checked; cysteine pairing not given here; UniProt P13068 1-57, looked up, variant I1D)
Cleavage by NisP (NisP; ratio 1000:1, culture pH (4.5–5.0) or pH 6.0, MALDI-TOF): a small fraction of uncleaved peptide after the incubation of the mutant nisin I1D with the protease, which indicates reduced cleavage efficiency

nisin I1K: Nisin I1K mutant (MSTKDFNLDLVSVSKKDSGASPRKTSISLCTPGCKTGALMGCNMKTATCHCSIHVSK; ends and bridges not checked; cysteine pairing not given here; UniProt P13068 1-57, looked up, variant I1K)
Aberrant cleavage / misprocessing by NisP (NisP): a small fraction of mature nisin with a mass difference consistent with the presence of Arg P1 in the mature peptide
Aberrant cleavage / misprocessing by NisP (NisP; listed as I1K): a small additional peak detected by mass-spectrometry consistent with a cleavage between positions P2 and P1

nisin-C7A: Nisin C7A mutant, lacking the first ring (MSTKDFNLDLVSVSKKDSGASPRITSISLATPGCKTGALMGCNMKTATCHCSIHVSK; not fully specified; cysteine pairing not given here; UniProt P13068 1-57, looked up, variant C7A)
Aberrant cleavage / misprocessing by NisP (NisP): small peaks corresponding to peptides cleaved at abnormal P1 or P2 positions in the leader peptide; also recorded: a small fraction of nisin lacking the first amino acid(s)

nisin-ringA-less: Nisin (T2V S3A S5A C7A) mutant (MSTKDFNLDLVSVSKKDSGASPRIVAIALATPGCKTGALMGCNMKTATCHCSIHVSK; not fully specified; cysteine pairing not given here; UniProt P13068 1-57, looked up, variant T2V S3A S5A C7A)
Aberrant cleavage / misprocessing by NisP (NisP): small peaks corresponding to peptides cleaved at abnormal P1 or P2 positions in the leader peptide; also recorded: a small fraction of nisin lacking the first amino acid(s)

nisin: mature model lantibiotic (ITSISLCTPGCKTGALMGCNMKTATCHCSIHVSK; Lantibiotic nisin-A; UniProt P13068 24-57, looked up)
Sensitivity of the NisP producing strain to nisin [1]: increased sensitivity

thrombin
Activity of the protease in culture conditions (release of active nisin) [2]: active; also recorded: able to cleave in culture conditions

trypsin
Protease activity (antimicrobial activity after activation of prenisin) (Micrococcus flavus): antimicrobial activity only in the positive controls
Activity of the protease in culture conditions (release of active nisin) [2]: able to cleave in culture conditions

B1: NZ9000 (pNGnisTP): strain producing as a major product wild-type cell-anchored NisP (protein, UniProt Q07596 1-682, looked up)
chain: MKKILGFLFIVCSLGLSATVHGETTNSQQLLSNNINTELINHNSNAILSSTEGSTTDSINLGAQSPAVKSTTRTELDVTGAAKTLLQTSAVQKEMKVSLQETQVSSEFSKRDSVTNKEAVPVSKDELLEQSEVVVSTSSIQKNKILDNKKKRANFVTSSPLIKEKPSNSKDASGVIDNSASPLSYRKAKEVVSLRQPLKNQKVEAQPLLISNSSEKKASVYTNSHDFWDYQWDMKYVTNNGESYALYQPSKKISVGIIDSGIMEEHPDLSNSLGNYFKNLVPKGGFDNEEPDETGNPSDIVDKMGHGTEVAGQITANGNILGVAPGITVNIYRVFGENLSKSEWVARAIRRAADDGNKVINISAGQYLMISGSYDDGTNDYQEYLNYKSAINYATAKGSIVVAALGNDSLNIQDNQTMINFLKRFRSIKVPGKVVDAPSVFEDVIAVGGIDGYGNISDFSNIGADAIYAPAGTTANFKKYGQDKFVSQGYYLKDWLFTTANTGWYQYVYGNSFATPKVSGALALVVDKYGIKNPNQLKRFLLMNSPEVNGNRVLNIVDLLNGKNKAFSLDTDKGQDDAINHKSMENLKESRDTMKQEQDKEIQRNTNNNFSIKNDFHNISKEVISVDYNINQKMANNRNSRGAVSVRSQEILPVTGDGEDFLPALGIVCISILGILKRKTKN
modifications: full-length
notes: strain producing as a major product wild-type cell-anchored NisP
Protease activity (antimicrobial activity after activation of prenisin) (Micrococcus flavus): antimicrobial activity only in the positive controls
